The values that follow are results of earlier work, collected in patent US20190105277A1, “PHARMACEUTICAL COMPOSITION COMPRISING AN ATYPICAL ANTIPSYCHOTIC AGENT AND METHOD FOR THE PREPARATION THEREOF” (PHARMATHEN S.A., priority 2016, published 2019).

SMILES strings stand for the structures. Read-outs that look alike come from different tables or passages of the source.

Consider `Cc1nc2n(c(=O)c1CCN1CCC(c3noc4cc(F)ccc34)CC1)CCCC2O` (stereo not drawn) [Paliperidone, 3-[2-[4-(6-fluoro-1,2-benzisoxazol-3-yl)-1-piperidinyl]ethyl]-6,7,8,9-tetrahydro-9-hydroxy-2-methyl-4H-pyrido[1,2-a]pyrimidin-4-one], for which the solubility entry runs as follows: (in 0.1N HCl) “slightly soluble”; (in dichloromethane) “sparingly soluble”; (in water) “insoluble”.
